Data reported in publication PMC7252524 (Journal of medicinal chemistry, 2019).

Experiment: Mouse PK analysis, large intestine
Format: in vivo

Row | Large Intestinal PK AUClast (iv, 10 mg/kg) | Large Intestinal PK AUClast (ip, 10 mg/kg) | Large Intestinal PK AUClast (iv, 5 mg/kg) | Large Intestinal PK AUClast (po, 20 mg/kg) | SMILES
1 | 262,874 ng·min/g | – | – | – | CC1CCN(C2CCN(S(=O)(=O)c3ccc(Cl)cc3)CC2)CC1 [compound 16, 1’-((4-Chlorophenyl)sulfonyl)-4-methyl-1,4’-bipiperidine]
2 | – | 737,709 ng·min/g | – | – | COc1ccc(S(=O)(=O)N2CCC(N3CCC(C)CC3)CC2)cc1 [compound 6, 1’-((4-Methoxyphenyl)sulfonyl)-4-methyl-1,4’-bipiperidine]
3 | 559,037 ng·min/g | 633,289 ng·min/g | – | – | C#CCC1CCN(C2CCN(S(=O)(=O)c3ccc(Br)cc3)CC2)CC1 [compound 92, 1’-((4-Bromophenyl)sulfonyl)-4-(prop-2-yn-1-yl)-1,4’-bipiperidine]
4 | – | 790,425 ng·min/g | 511,878 ng·min/g | 890,969 ng·min/g | CC1CCN(C2CCN(S(=O)(=O)c3ccc(OC(F)F)cc3)CC2)CC1 [compound 22, 1’-((4-(Difluoromethoxy)phenyl)sulfonyl)-4-methyl-1,4’-bipiperidine]
